Key:
[1] = system: primary inguinal fat cells, primary BAT cells, C2C12 cells, and U2OS cells; test: Uncoupled respiration cellular assays (variety of cell types); format: cell-based; conditions: N-acyl amino acids at 10-100 uM
Procedure: (§1) Cellular oxygen consumption rates were determined using an XF24 Extracellular Flux Analyzer (Seahorse Biosciences). Oligomycin was purchased from EMD Millipore, and FCCP and rotenone were purchased from Sigma. C2C12 or U2OS cells were seeded at 30,000 or 50,000 cells/well, respectively in an XF24 cell culture microplate (V7-PS, Seahorse Bioscience) and analyzed the following day. Primary iWAT or BAT adipocytes were seeded at 15,000 cells/well, differentiation was induced the following day as described, and the cells were analyzed on day 5. On the day of analysis, the cells were washed once with Seahorse respiration buffer (8.3 g/1 DMEM, 1.8 g/l NaCl, 1 mM pyruvate, 20 mM glucose, pen/strep), placed in 0.5 ml Seahorse respiration buffer, and incubated in a CO2-free incubator for 1 hr. Port injection solutions were prepared as follows (final concentrations in assay in parentheses): 10 μM oligomycin (1 μM final), […] amino acid (50 μM final), 2 μM FCCP (0.2 μM final), and 30 μM rotenone (3 μM final). The Seahorse program was run as follows: basal measurement, 3 cycles; inject port A (oligomycin), 3 cycles; inject port B (compounds), 8 cycles; inject port C (FCCP), 3 cycles; inject port D (rotenone), 3 cycles. Each cycle consisted of mix 4 min, wait 0 min, and measure 2 min. For data expressed as a percentage of oligomycin-treated basal, the respiration at cycle 6 was normalized to 100%, and the maximum respiration at any time point between cycles 7 and 15 inclusive was used.

C2C12 cells = test: Cellular oxygen consumption rate (uncoupled respiration), C2C12 cells; format: cell-based, mouse; conditions: 50 μM, after oligomycin 1 μM
Procedure: C2C12, U2O5, and 293A cells were cultured in DMEM with 10% FBS and pen/strep. Primary inguinal (iWAT) and brown (BAT) adipocytes were obtained as follows. The stromal-vascular fraction of inguinal (iWAT) pad from 4-12 week old male mice was dissected, minced, and digested for 45 min. at 37° C. in PBS containing 10 mM CaCl2, 2.4 U/ml dispase II (Roche), and 1.5 U/ml collagenase D (Roche). The stromal-vascular fraction of brown fat (BAT) pads from newborn (P1-P14) pups was dissected, minced, and digested for 45 min at 37° C. in PBS containing 1.3 mM CaCl2, 120 mM NaCl, 5 mM KCl, 5 mM glucose, 100 mM HEPES, 4% BSA, and 1.5 mg/ml collagenase B (Roche). Digested tissue was diluted with adipocyte culture media (DMEM/F-12, GlutaMAX™ supplement, Life Technologies, with 10% FBS and pen/strep) and centrifuged (600×g for 10 min.). The pellet was resuspended in 10 ml adipocyte culture media, strained through a 40 μm filter, and plated. Differentiation was induced by application of an adipogenic cocktail containing 5 μg/ml insulin (Sigma), 5 μM dexamethasone (Sigma), 250 μM isobutylmethylxanthine (Sigma), and 1 μM rosiglitazone (Cayman) for 2 days. Two days after induction, cells were maintained in adipocyte culture media containing 5 μg/ml insulin and 1 μM rosiglitazone.
as §1

mouse PM20D1 [2] = molecular target: T1, mouse PM20D1 (Mus musculus, UniProt Q8C165); test: In vitro PM20D1-catalyzed N-acyl amino acid hydrolysis; format: biochemical; conditions: N-acyl amide substrate 100 μM
T1 construct: Full-length mouse Pm20d1 cDNA (GE Dharmacon) was subcloned with an in-frame C-terminal 6× His and FLAG® tag; made in house; host or cells: 293A (HEK293A) cells stably infected with retrovirus
T1 sequence (Q8C165 25-503): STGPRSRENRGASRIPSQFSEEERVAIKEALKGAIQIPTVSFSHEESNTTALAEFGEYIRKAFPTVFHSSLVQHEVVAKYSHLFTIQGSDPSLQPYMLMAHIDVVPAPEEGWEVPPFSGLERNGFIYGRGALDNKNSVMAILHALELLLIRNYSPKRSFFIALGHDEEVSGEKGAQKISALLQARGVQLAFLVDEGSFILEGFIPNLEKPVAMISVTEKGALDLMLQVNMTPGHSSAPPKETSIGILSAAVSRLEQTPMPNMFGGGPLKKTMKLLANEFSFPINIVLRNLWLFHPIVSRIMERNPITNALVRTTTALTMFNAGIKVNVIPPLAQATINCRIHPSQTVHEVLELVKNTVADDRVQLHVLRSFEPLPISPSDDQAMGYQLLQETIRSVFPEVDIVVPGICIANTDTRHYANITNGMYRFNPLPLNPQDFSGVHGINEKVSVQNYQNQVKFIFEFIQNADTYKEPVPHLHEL
Procedure: (§2) The concentrated media was centrifuged to remove debris (600×g, 10 min, 4° C.) and the supernatant containing PM20D1-flag was decanted into a new tube. PM20D1-Flag was immunoaffinity purified overnight at 4° C. from the concentrated media using magnetic Flag-M2 beads (Sigma Aldrich). The beads were collected, washed three times in PBS, eluted with 3× Flag peptide ([…] in PBS, Sigma Aldrich), aliquoted, and stored at −80° C. For the purification of human PM20D1-flag, hPM20D1-flag plasmid (Origene) was transiently transfected into 293A cells. After two days, the media was changed, harvested 24 h later, concentrated, and purified exactly as described above.
(§3) In vitro PM20D1-catalyzed synthesis of N-acyl amino acids was measured by incubating purified PM20D1 protein with oleate (1.5 mM) and phenylalanine (0.1 mM) in PBS (to 100 μl final volume) at 37° C. for 1.5 hrs. In vitro PM20D1-catalyzed N-acyl amino acid hydrolysis was measured by incubating purified PM20D1 protein with the indicated N-acyl amino acid (0.1 mM) in PBS (to 100 μl final volume) at 37° C. for 1.5 hrs. Reactions were terminated by placing the vials at −80° C. and the products generated in vitro were analyzed by mass spectroscopy (MS).
(§4) Briefly, frozen serum (30 μl) for polar metabolomic analyses were extracted in 160 μl of 1:1 acetonitrile/methanol with inclusion of internal standard D3, ^15N-serine (1 nmol). Activity assays (100 μl) were extracted in 400 μl 1:1 acetonitrile/methanol. Following 30 s of thorough vortexing and 1 min of bath sonication, the polar metabolite fraction (supernatant) was isolated by centrifugation at 13,000×g for 10 min. Ten μl of this supernatant was analyzed by SRM-based targeted LC-MS/MS, or untargeted LC-MS.
(§5) For separation of polar metabolites, normal-phase chromatography was performed with a […] column (50 mm×4.60 mm, Phenomenex). Mobile phases were as follows: Buffer A, acetonitrile; Buffer B, 95:5 water/acetonitrile with 0.1% formic acid or 0.2% ammonium hydroxide with 50 mM ammonium acetate for positive and negative ionization mode, respectively. The flow rate for each run started at 0.2 ml/min for 2 min, followed by a gradient starting at 0% B and increasing linearly to 100% B over the course of 15 min with a flow rate of 0.7 ml/min, followed by an isocratic gradient of 100% B for 10 min at 0.7 ml/min before equilibrating for 5 min at 0% B with a flow rate of 0.7 ml/min. MS analysis was performed with an electrospray ionization (ESI) source on an Agilent 6430 QQQ LC—MS/MS. The capillary voltage was set to 3.5 kV, and the fragmentor voltage was set to 100 V. The drying gas temperature was 325° C., the drying gas flow rate was 10 l/min, and the nebulizer pressure was 45 psi. For polar targeted and untargeted metabolomic analysis, representative metabolites were quantified by SRM of the transition from precursor to product ions (corresponding to amino acid fragment) at associated collision energies. Several representative fragmentation ions are as follows: C18:1-Ala, 352>88; C18:1-Gly, 338>74; C18:1-Phe, 428>164; C18:1-Leu/Ile, 394>130; C20:4-Phe, 450>164; C20:4-Leu/Ile, 416>130. Untargeted LC-MS was performed by scanning a mass range of m/z 50-1200, and data were exported as mzdata files and uploaded to XCMSOnline (xcmsserver.nutr.berkeley.edu) to identify metabolites that were differentially changed. For targeted metabolomics analysis, metabolites were quantified by integrating the area under the peak and were normalized to internal standard values corresponding to 1 nmol D3, ^15N-serine.

mouse PM20D1 [3] = molecular target: T1, mouse PM20D1; test: In vitro PM20D1-catalyzed synthesis of N-acyl amino acids; format: biochemical; conditions: for substrate of the PM20D1 synthase reaction: head group 100 μM, oleate or arachidonate 1.5 mM, C18:1-CoA 0.7 mM
Procedure: as §2, §3, §4, §5

SMILES | uncoupled respiration in cells [1] | uncoupling activity (uncoupled respiration) (C2C12 cells) | other results
CCCCCC[C@@H](O)C/C=C\CCCCCCCC(=O)N[C@@H](C)c1ccccc1 [(S)-alpha-methylbenzyl ricinoleamide, reference compound] | inactive |  | 
CCCCCCCC/C=C\CCCCCCCC(=O)N[C@@H](CCC(N)=O)C(=O)O [C18:1-Gln, Oleoyl-L-glutamine] |  | possessed the uncoupling activity | 
CCCCCCCC/C=C\CCCCCCCC(=O)NCC(=O)O [C18:1-Gly] |  |  | substrate of the PM20D1 hydrolysis reaction (mouse PM20D1 [2]): substrates
CCCCCCCC/C=C\CCCCCCCC(=O)N[C@@H](CCCCN)C(=O)O [C18:1-Lys, Oleoyl-L-lysine] |  | not | 
CCCCCCCC/C=C\CCCCCCCC(=O)N[C@@H](CO)C(=O)O [C18:1-Ser] |  |  | substrate of the PM20D1 hydrolysis reaction (mouse PM20D1 [2]): substrates
CCCCC/C=C\C/C=C\C/C=C\C/C=C\CCCC(=O)NC [N-arachidonoyl N-methyl amide, N-methyl N-arachidonoyl amide, reference compound] | inactive | did not stimulate uncoupled respiration | 
CCCCC/C=C\C/C=C\C/C=C\C/C=C\CCCC(=O)NCCc1ccc(O)c(O)c1 [N-arachidonoyl dopamine, reference compound] | inactive | did not stimulate uncoupled respiration | 
CCCCC/C=C\C/C=C\C/C=C\C/C=C\CCCC(=O)NCCCC(=O)O [N-arachidonoyl gamma amino butyric acid] | increased uncoupled respiration | stimulate uncoupled respiration | 
CCCCC/C=C\C/C=C\C/C=C\C/C=C\CCCC(=O)N[C@@H](CO)C(=O)O [N-arachidonoyl serine] | increased uncoupled respiration |  | 
CCCCC/C=C\C/C=C\C/C=C\C/C=C\CCCC(=O)NCCS(=O)(=O)O [N-arachidonoyl taurine, reference compound] | inactive | did not stimulate uncoupled respiration | 
CCCCC/C=C\C/C=C\CCCCCCCC(=O)N[C@@H](Cc1ccccc1)C(=O)O [N-linoleoyl phenylalanine] | increased uncoupled respiration |  | 
CCCCCCCC/C=C\CCCCCCCC(=O)NCCO [N-oleoyl ethanolamine, reference compound] | inactive |  | substrate of the PM20D1 hydrolysis reaction (mouse PM20D1 [2]): does not hydrolyze; substrate of the PM20D1 hydrolysis reaction (mouse PM20D1 [2]; listed as C18:1-EA): not a PM20D1 substrate
CCCCCCCC/C=C\CCCCCCCC(=O)N[C@@H](Cc1ccccc1)C(N)=O [N-oleoyl phenylalanine amide, (S)-N-(1-amino-1-oxo-3-phenylpropan-2-yl)oleamide] | inactive | completely abrogated uncoupling activity | 
CCCCCCCC/C=C\CCCCCCCC(=O)N[C@@H](Cc1ccccc1)C(=O)OC [N-oleoyl phenylalanine methyl ester, Methyl oleoyl-L-phenylalaninate] | inactive | completely abrogated uncoupling activity | 
CCCCCCCCCCCCCCCC(=O)N[C@@H](Cc1ccccc1)C(=O)OC [N-palmitoyl phenylalanine methyl ester] | inactive |  | 
N[C@@H](Cc1ccccc1)C(=O)O [Phe, phenylalanine] |  |  | substrate of the PM20D1 synthase reaction (mouse PM20D1 [3]): most efficiently converted to its corresponding N-acyl amino acid product
CC(=O)[O-].CC(=O)[O-].[Zn+2] [Zn(OAc)2] |  |  | effect on PM20D1 reaction rate (mouse PM20D1 [3]; 2 mM added to the reaction in PBS): does not augment reaction rate and may decrease the rate
NCCO [ethanolamine] |  |  | substrate of the PM20D1 synthase reaction (mouse PM20D1 [3]): not substrates for the synthase reaction
N[C@@H](CCC(=O)O)C(=O)O [glutamate] |  |  | substrate of the PM20D1 synthase reaction (mouse PM20D1 [3]): not substrates for the synthase reaction
CCCCC/C=C\C/C=C\C/C=C\C/C=C\CCCC(=O)N[C@H](C)CO [methanandamide, R(+)-methanandamide, reference compound] | inactive | did not stimulate uncoupled respiration | 
CCCCC/C=C\C/C=C\C/C=C\C/C=C\CCCCOC(CO)CO [noladin ether, reference compound] | inactive |  | 

Reference: patent US12194080B2, “Methods for identification, assessment, prevention, and treatment of metabolic disorders using PM20D1 and N-lipidated amino acids” (Dana-Farber Cancer Institute, Inc., priority 2015, dated 2025)
